The target of test [1] is T1, human CD38 (Homo sapiens, UniProt P28907).
T1 construct: the catalytic domains of the enzymes were amplified and sub-cloned into the expression vector pACGP67 A/B; 9xHis (C); made in house; host or cells: Sf9 insect cells (baculovirus, pACGP67 A/B)
T1 sequence (P28907 43-300 limits assumed): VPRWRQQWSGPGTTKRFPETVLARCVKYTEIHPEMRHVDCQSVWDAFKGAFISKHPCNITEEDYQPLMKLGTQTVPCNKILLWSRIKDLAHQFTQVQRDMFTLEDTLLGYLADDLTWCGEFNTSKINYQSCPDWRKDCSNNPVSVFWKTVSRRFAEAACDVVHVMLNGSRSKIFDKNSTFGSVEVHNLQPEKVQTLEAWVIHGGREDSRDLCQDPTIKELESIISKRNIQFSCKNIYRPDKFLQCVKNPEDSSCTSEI
Briefly: CD38 assay. In kind it is biochemical. The following applies: analogous to NPP3 and NPP5 assays; for pKi: read-out: Ki ± SEM. An excerpt:
(§1) The cDNAs of the human enzymes NPP1, NPP3, NPP5, CD38 and CD73 (Genbank accession no. NM_006258, NM_005021, NM_021572, NM_ 001775, and NM_002526, respectively) were obtained from Origene (Rockville, USA). Soluble enzymes were produced as previously reported with some modifications ([Lee et al., 2015]; [Junker et al., 2019]). Briefly, the catalytic domains of the enzymes were amplified and sub-cloned into the expression vector pACGP67 A/B modified with the addition of 9 x histidine tag (His-tag) at the C-terminus (except for NPP1). The plasmids were transfected in Sf9 insect cells using Cellfectin™ II Reagent (Thermo Fisher Scientific, MA, USA) and ProEasy™ baculovirus linearized DNA (Cat.#A10S, AB Vector, LLC). Protein expression was conducted for 48 h at 27°C. The signal peptide sequence of the expression vector shuttled the proteins into the supernatant. The supernatant medium was collected, and the enzymes were purified using HisPur™ Ni^2+-NTA spin columns according to the manufacturer’s protocol. The protein concentration was determined by the method previously described by [Lowry et al. (1951)].
The assay operation was analogous to the NPP3 and NPP5 assays. The enzymatic reactions were performed in 10 mM HEPES reaction buffer (pH 7.2) using 8 ng of human CD38 (expressed in Sf9 insect cells) in analogy to a published procedure ([Blacher et al., 2015]).

Test [2] deals with T2, human NPP3 (Homo sapiens, UniProt O14638).
T2 construct: the catalytic domains of the enzymes were amplified and sub-cloned into the expression vector pACGP67 A/B; 9xHis (C); made in house; host or cells: Sf9 insect cells (baculovirus, pACGP67 A/B)
T2 sequence (O14638 31-875 limits assumed): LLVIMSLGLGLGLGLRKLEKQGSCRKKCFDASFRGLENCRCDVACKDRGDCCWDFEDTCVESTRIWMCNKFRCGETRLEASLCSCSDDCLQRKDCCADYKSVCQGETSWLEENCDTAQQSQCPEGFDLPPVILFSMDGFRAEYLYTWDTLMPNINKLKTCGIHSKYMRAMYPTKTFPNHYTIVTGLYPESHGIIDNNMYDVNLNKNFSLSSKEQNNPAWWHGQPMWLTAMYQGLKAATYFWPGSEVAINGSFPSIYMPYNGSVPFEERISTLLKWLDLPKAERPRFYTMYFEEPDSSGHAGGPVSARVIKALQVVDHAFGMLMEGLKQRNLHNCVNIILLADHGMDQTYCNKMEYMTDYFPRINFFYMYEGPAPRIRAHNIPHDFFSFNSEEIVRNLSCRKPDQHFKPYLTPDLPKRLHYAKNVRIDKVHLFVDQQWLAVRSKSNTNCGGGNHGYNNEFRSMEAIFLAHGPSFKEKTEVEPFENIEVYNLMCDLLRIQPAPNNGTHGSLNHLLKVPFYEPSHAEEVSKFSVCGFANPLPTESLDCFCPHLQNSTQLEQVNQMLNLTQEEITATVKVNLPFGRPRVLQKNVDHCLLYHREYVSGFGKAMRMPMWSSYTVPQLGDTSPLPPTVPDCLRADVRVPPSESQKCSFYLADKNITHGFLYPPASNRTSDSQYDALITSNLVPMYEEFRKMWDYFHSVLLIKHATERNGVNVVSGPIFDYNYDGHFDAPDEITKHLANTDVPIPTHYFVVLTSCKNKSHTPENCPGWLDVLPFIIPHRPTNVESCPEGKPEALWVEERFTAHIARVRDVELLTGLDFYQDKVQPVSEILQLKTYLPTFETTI
The experiment in a line: NPP3 assay with ϵ-NAD+ as substrate. It is filed as biochemical. The following applies: for inhibition at 10 µM: 10 µM test compound; for pKi: 20 µM ϵ-NAD+, read-out: Ki ± SEM.
From the text: as §1
The assays were performed in analogy to published procedures ([Blacher et al., 2015]). The enzymatic activity of human NPP3 and NPP5 (soluble forms expressed in insect cells and purified as previously described ([Lee et al., 2015]; [Lopez et al., 2020]) was measured using 1,N^6-etheno-nicotinamide adenine dinucleotide (ϵ-NAD^+) as a substrate, which is hydrolyzed to fluorescent 1,N^6-etheno-AMP (ϵ-AMP). The enzymatic reactions were performed in reaction buffer [10 mM N-cyclohexyl-2-aminoethanesulfonic acid (CHES), 2 mM CaCl2, and 1 mM MgCl2, pH 9.0 in H2O]. Purified NPP3 (90 ng) or NPP5 (400 ng), 20 µM of ϵ-NAD^+ and 10 µM of the test compound were incubated for 30 min at 37°C. The relative fluorescence at 270 nm excitation and 420 nm emission was detected by a fluorescence microplate reader (Flexstation, Medical Devices LLC. USA, Softmax Pro software to collect the data).

pKi: −log10 of the molar value.

For orientation: % inhibition means the percentage by which the read-out fell short of the control. High values mean strong suppression, low ones little suppression. Broadly, the pKi is −log10 of the Ki, conventionally taken in molar units. As a reminder, the inhibition is the drop in the measured response relative to a control, in per cent. Low values mean little suppression, high ones strong suppression. `CCCCNc1nc2c(NC)ncnc2n1[C@@H]1O[C@H](COP(=O)(O)OP(=O)(O)C(Br)(Br)P(=O)(O)O)[C@@H](O)[C@H]1O` [Compound 33, (Dibromo((((((2R,3S,4R,5R)-5-(8-(butylamino)-6-(methylamino)-9H-purin-9-yl)-3,4-dihydroxy-tetrahydrofuran-2-yl)methoxy)(hydroxy)phosphoryl)oxy)-(hydroxy)phosphoryl)methyl)-phosphonic Acid]: in test [1], the “% inhibition” value is listed as 6% and the pKi was less than 5.00. In test [2], the inhibition at 10 µM amounted to 8% and the pKi was less than 5.00.

For the compound `CCCCSc1nc2c(N)ncnc2n1[C@@H]1O[C@H](COP(=O)(O)OP(=O)(O)C(Br)(Br)P(=O)(O)O)[C@@H](O)[C@H]1O` [Compound 31, (((((((2R,3S,4R,5R)-5-(6-Amino-8-(butylthio)-9H-purin-9-yl)-3,4-dihydroxytetrahydrofuran-2-yl)methoxy)(hydroxy)-phosphoryl)oxy)(hydroxy)phosphoryl)dibromomethyl)-phosphonic Acid], in test [1], the “% inhibition” value is on record as 7% and the pKi is less than 5.00. Besides, in test [2], the inhibition at 10 µM was 8% and the pKi is less than 5.00.

As for `CCN(CC)c1ncnc2c1ncn2[C@@H]1O[C@H](COP(=O)(O)OP(=O)(O)C(Br)(Br)P(=O)(O)O)[C@@H](O)[C@H]1O` [ARL67156, (Dibromo((((((2R,3S,4R,5R)-5-(6-(diethylamino)-9H-purin-9-yl)-3,4-dihydroxytetrahydrofuran-2-yl)methoxy)-(hydroxy)-phosphoryl)oxy)(hydroxy)phosphoryl)methyl)-phosphonic Acid, reference compound], in test [1], the “% inhibition” value turned out to be 0% and the pKi was less than 5.00. Further, in test [2], the inhibition at 10 µM came out at 13% and the pKi was less than 5.00.

These data come from article PMC7508162 (Frontiers in Pharmacology, 2020).
